Measurements as given in publication PMC7656694 (Biotechnology for Biofuels, 2020).
Residue numbers refer to the chain shown, from its start. Names and notes keep the numbering of the source.

What was measured:
[1] = biological target: T1, EcBdh (Enterobacter cloacae, UniProt G8FSA9); assay: NADH consumption at […] nm; assay type: biochemical; conditions: 0.25 mM NADH, 25 mM acetoin, 100 mM potassium phosphate pH 7.0; racemic acetoin
T1 construct: gene dar; full length, N-terminal His6 and TEV site (cleavage not described), gene amplified from Z. mobilis strain BC-11B, expressed in Zymomonas mobilis 9C, purified
T1 sequence (G8FSA9 1-256): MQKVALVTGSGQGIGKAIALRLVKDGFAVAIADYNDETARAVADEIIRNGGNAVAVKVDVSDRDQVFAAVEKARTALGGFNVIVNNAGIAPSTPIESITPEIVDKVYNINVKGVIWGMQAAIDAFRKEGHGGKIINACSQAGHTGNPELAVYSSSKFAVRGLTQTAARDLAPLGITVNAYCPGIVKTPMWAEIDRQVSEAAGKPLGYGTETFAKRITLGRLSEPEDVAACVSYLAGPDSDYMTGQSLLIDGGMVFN

[2] = biological target: T2, SmBdh (Serratia marcescens, UniProt H9XP47); assay: X-ray crystal structure, […] A; assay type: binding
T2 construct: gene budC; full length, N-terminal His6 and TEV site after start codon (cleavage not described), codon-optimized, expressed in Zymomonas mobilis 9C; tetramer, site completed by Gln247 of the symmetry-related chain
T2 sequence (H9XP47 2-251): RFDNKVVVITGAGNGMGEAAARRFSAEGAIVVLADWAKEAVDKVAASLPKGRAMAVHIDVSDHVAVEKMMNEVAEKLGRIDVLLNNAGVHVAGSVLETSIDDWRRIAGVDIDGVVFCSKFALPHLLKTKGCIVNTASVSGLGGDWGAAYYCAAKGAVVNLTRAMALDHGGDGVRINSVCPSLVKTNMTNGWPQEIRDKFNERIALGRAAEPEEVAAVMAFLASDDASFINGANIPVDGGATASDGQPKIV

[3] = biological target: the molecule itself; assay: crystal structure

Molecule: CC(=O)C(C)O (racemic) [acetoin]
- NADH consumption at 340 nm [1]: Proteins were expressed in the Z. mobilis 9C strain, purified to homogeneity

Molecule: CC(=O)[C@@H](C)O [(3R)-acetoin]
- X-ray crystal structure, 2.0 A ([2]; NAD+ bound, active site of closed molecule A, modelled together with (3S)-acetoin from racemate): both (3R)- and (3S)-acetoin molecules bound in the pocket

Molecule: CC(=O)[C@H](C)O [(3S)-acetoin]
- X-ray crystal structure, 2.0 A ([2]; NAD+ bound, active site of closed molecule A, modelled together with (3R)-acetoin from racemate): both (3R)- and (3S)-acetoin molecules bound in the pocket

Molecule: Nc1ncnc2c1ncn2[C@@H]1O[C@H](COP(=O)(O)OP(=O)(O)O)[C@@H](O)[C@H]1O [ADP]
- X-ray crystal structure, 2.0 A ([2]; cofactor site of open molecule B, only NAD+ was added in crystallization): the corresponding space is occupied by only adenine diphosphate

Molecule: NC(=O)C1=CN([C@@H]2O[C@H](COP(=O)(O)OP(=O)(O)OC[C@H]3O[C@@H](n4cnc5c(N)ncnc54)[C@H](O)[C@@H]3O)[C@@H](O)[C@H]2O)C=CC1 [NADH]
- NADH consumption at 340 nm [1]: subjected to activity analysis using the NADH consumption assay

Molecule: NC(=O)c1ccc[n+]([C@@H]2O[C@H](COP(=O)(O)OP(=O)(O)OC[C@H]3O[C@@H](n4cnc5c(N)ncnc54)[C@H](O)[C@@H]3O)[C@@H](O)[C@H]2O)c1 [NAD^+]
- X-ray crystal structure, 2.0 A ([2]; cofactor site of closed molecule A, with acetoin): locate NAD ^+ cofactor molecule and acetoin molecules in protein molecule A

B1: Serratia marcescens 2,3-butanediol dehydrogenase, wild type (N-term SmBdh) (enzyme, UniProt H9XP47 1-251, looked up)
chain: MRFDNKVVVITGAGNGMGEAAARRFSAEGAIVVLADWAKEAVDKVAASLPKGRAMAVHIDVSDHVAVEKMMNEVAEKLGRIDVLLNNAGVHVAGSVLETSIDDWRRIAGVDIDGVVFCSKFALPHLLKTKGCIVNTASVSGLGGDWGAAYYCAAKGAVVNLTRAMALDHGGDGVRINSVCPSLVKTNMTNGWPQEIRDKFNERIALGRAAEPEEVAAVMAFLASDDASFINGANIPVDGGATASDGQPKIV
notes: tag and TEV site placed immediately after the start codon; also called WT SmBdh; WT SmBDH; source: Z. mobilis strain 9C, purified (HisTrap, size exclusion chromatography)
- stoichiometry N [3]: 4

B2: Serratia marcescens 2,3-butanediol dehydrogenase Q247A mutant (enzyme)
chain: B1 chain with Q247A
notes: also called SmBdh Q247A; Q247A SmBdh; source: Z. mobilis strain 9C, purified (HisTrap, size exclusion chromatography)
- binding result [3]: binds

B3: Serratia marcescens 2,3-butanediol dehydrogenase Q247A + V139Q double mutant (enzyme)
chain: B1 chain with V139Q, Q247A
notes: also called SmBdh Q247A + V139Q; Q247A + V139Q SmBdh; source: Z. mobilis strain 9C, purified (HisTrap, size exclusion chromatography)
- binding result [3]: binds
